Results: ChEMBL document CHEMBL1123868, “Synthesis of a series of compounds related to betaxolol, a new beta 1-adrenoceptor antagonist with a pharmacological and pharmacokinetic profile optimized for the treatment of chronic cardiovascular diseases” (J Med Chem, 1987)
The source made the active and inactive calls. The rule behind the calls is not given here.

Columns and labels:
[1] = organism: Rattus norvegicus; experiment: Antihypertensive activity expressed as percentage of base-line systolic blood pressure of base-line values in spontaneously hypertensive rats (SHR) was reported after 2 hr; format: functional, Artery; also: test concentration or dose not given here
[2] = organism: Rattus norvegicus; experiment: Antihypertensive activity expressed as percentage of base-line systolic blood pressure of base-line values in spontaneously hypertensive rats (SHR) was reported after 4 hr; format: functional, Artery; also: test concentration or dose not given here
[3] = organism: Rattus norvegicus; experiment: Antihypertensive activity expressed as percentage of base-line systolic blood pressure of base-line values in spontaneously hypertensive rats (SHR) was reported after 24 hr; format: functional, Artery; also: test concentration or dose not given here
[4] = molecular target: Beta-1 adrenergic receptor (Rattus norvegicus) (UniProt P18090); experiment: Antagonist activity was determined against beta-1 adrenergic receptor in spontaneously beating rat atria; format: functional
Beta-1 adrenergic receptor (Rattus norvegicus), sequence (P18090 whole entry, looked up): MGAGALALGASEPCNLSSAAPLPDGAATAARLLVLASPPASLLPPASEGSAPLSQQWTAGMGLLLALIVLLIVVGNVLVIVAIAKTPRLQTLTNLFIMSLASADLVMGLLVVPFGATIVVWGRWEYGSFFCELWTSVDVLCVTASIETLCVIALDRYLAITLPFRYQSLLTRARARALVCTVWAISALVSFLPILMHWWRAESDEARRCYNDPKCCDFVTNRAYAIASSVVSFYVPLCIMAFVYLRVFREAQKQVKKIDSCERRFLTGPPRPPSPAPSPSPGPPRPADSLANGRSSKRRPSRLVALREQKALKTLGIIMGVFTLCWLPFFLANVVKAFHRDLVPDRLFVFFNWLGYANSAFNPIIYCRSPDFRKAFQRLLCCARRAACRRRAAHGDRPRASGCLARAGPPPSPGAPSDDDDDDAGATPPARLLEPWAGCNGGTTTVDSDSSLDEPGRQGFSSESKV

[5] = molecular target: Beta-1 adrenergic receptor (Rattus norvegicus) (UniProt P18090); conditions: read-out: pA2 (converted)

## COc1ccc(CCNCC(O)COc2ccc(CCOCC3CCC3)cc2)cc1OC.Cl (stereo not given)
[1]
  Baseline systolic BP: -7%
[2]
  Baseline systolic BP: -5%
[3]
  Baseline systolic BP: -6%

## CC(C)NCC(O)COc1ccc(CCOCC2CC2)cc1 (stereo not given) [BETAXOLOL]
[1]
  Baseline systolic BP: 3%
[2]
  Baseline systolic BP: 5%
[3]
  Baseline systolic BP: 3%

## CC(C)NCC(O)COc1ccc(CCOC2CCCC2)cc1 (stereo not given)
[1]
  Baseline systolic BP: -17%
[2]
  Baseline systolic BP: -11%
[3]
  Baseline systolic BP: -4%

## CC(C)NCC(O)COc1ccc(CCS(=O)(=O)CC2CCCCC2)cc1.Cl (stereo not given)
[1]
  Baseline systolic BP: -6%
[2]
  Baseline systolic BP: -2%
[3]
  Baseline systolic BP: -2%

## Cl.OC(CNC1CC1)COc1ccc(CCOCC2CCC2)cc1 (stereo not given)
[1]
  Baseline systolic BP: 0%
[2]
  Baseline systolic BP: -5%
[3]
  Baseline systolic BP: 0%

## CC(C)NCC(O)COc1ccc(CCCOCC2CCC2)cc1.O=C(O)C(=O)O (stereo not given)
[1]
  Baseline systolic BP: -11%
[2]
  Baseline systolic BP: -11%
[3]
  Baseline systolic BP: -1%

## COCCc1ccc(OCC(O)CNC(C)C)cc1 (stereo not given) [METOPROLOL]
[1]
  Baseline systolic BP: 4%
[2]
  Baseline systolic BP: -2%
[3]
  Baseline systolic BP: -12%

## CC(C)NCC(O)COc1ccc(CCOC2CCCC2)cc1.Cl (stereo not given)
[1]
  Baseline systolic BP: -8%
[2]
  Baseline systolic BP: -16%
[3]
  Baseline systolic BP: -7%

## CC(C)NCC(O)COc1cccc2ccccc12 (stereo not given) [PROPRANOLOL]
[1]
  Baseline systolic BP: 0%
[2]
  Baseline systolic BP: 0%
[3]
  Baseline systolic BP: -9%

## CC(C)NCC(O)COc1ccc(CCOCC2CCCCC2)cc1.Cl (stereo not given)
[1]
  Baseline systolic BP: -14%
[2]
  Baseline systolic BP: -18%
[3]
  Baseline systolic BP: -7%

## CC(CCc1ccc(F)cc1)NCC(O)COc1ccc(CCOCC2CCC2)cc1 (stereo not given)
[1]
  Baseline systolic BP: -4%
[2]
  Baseline systolic BP: -10%
[3]
  Baseline systolic BP: -2%

## CC(C)NCC(O)COc1ccc(CCS(=O)(=O)CC2CCCO2)cc1.Cl (stereo not given)
[1]
  Baseline systolic BP: -22%
[2]
  Baseline systolic BP: -16%
[3]
  Baseline systolic BP: -3%

## CC(CCc1ccccc1)NCC(O)COc1ccc(CCOCC2CCC2)cc1 (stereo not given)
[1]
  Baseline systolic BP: -1%
[2]
  Baseline systolic BP: 1%
[3]
  Baseline systolic BP: 2%

## CC(C)NCC(O)COc1ccc(CCOCC2CCC2)cc1.Cl (stereo not given)
[1]
  Baseline systolic BP: -16%
[2]
  Baseline systolic BP: -16%
[3]
  Baseline systolic BP: -4%

## CC(C)NCC(O)COc1ccc(C[S+]([O-])CC2CCCC2)cc1 (stereo not given)
[1]
  Baseline systolic BP: -5%
[2]
  Baseline systolic BP: -7%
[3]
  Baseline systolic BP: -1%
[4]
  NA: inactive

## CC(C)NCC(O)COc1ccc(COCC2CCC2)cc1.Cl (stereo not given)
[1]
  Baseline systolic BP: -9%
[2]
  Baseline systolic BP: -6%
[3]
  Baseline systolic BP: -1%

## CC(=O)NCCNCC(O)COc1ccc(CCOCC2CCC2)cc1.Cl (stereo not given)
[1]
  Baseline systolic BP: -6%
[2]
  Baseline systolic BP: -8%
[3]
  Baseline systolic BP: -7%

## CC(C)NC[C@H](O)COc1ccc(CCOCC2CC2)cc1 [LEVOBETAXOLOL]
[1]
  Baseline systolic BP: -10%
[2]
  Baseline systolic BP: -12%
[3]
  Baseline systolic BP: -13%

## CC(C)NCC(O)COc1ccc(CCOC2CCCCC2)cc1 (stereo not given)
[1]
  Baseline systolic BP: 4%
[2]
  Baseline systolic BP: -2%
[3]
  Baseline systolic BP: -12%

## CC(C)NCC(O)COc1ccc(CCS(=O)(=O)CC2CCC2)cc1.Cl (stereo not given)
[1]
  Baseline systolic BP: -4%
[2]
  Baseline systolic BP: -13%
[3]
  Baseline systolic BP: 1%

## CC(C)NCC(O)COc1ccc(COCC2CC2)cc1 (stereo not given)
[1]
  Baseline systolic BP: -4%
[2]
  Baseline systolic BP: -3%
[3]
  Baseline systolic BP: -6%

## CC(C)NCC(O)COc1ccc(C[S+]([O-])CC2CC2)cc1 (stereo not given)
[1]
  Baseline systolic BP: -4%
[2]
  Baseline systolic BP: -8%
[3]
  Baseline systolic BP: -2%

## CC(C)NCC(O)COc1ccc(CCOCC2CCCC2)cc1 (stereo not given)
[1]
  Baseline systolic BP: -21%
[2]
  Baseline systolic BP: -16%
[3]
  Baseline systolic BP: -8%

## CC(C)NCC(O)COc1ccc(CCSCC2CCC2)cc1 (stereo not given)
[1]
  Baseline systolic BP: -2%
[2]
  Baseline systolic BP: -6%
[3]
  Baseline systolic BP: -3%

## CC(C)NCC(O)COc1ccc(CCOCC2CC2)cc1.Cl (stereo not given) [BETAXOLOL HYDROCHLORIDE]
[1]
  Baseline systolic BP: -22%
[2]
  Baseline systolic BP: -19%
[3]
  Baseline systolic BP: -6%

## CC(=O)Nc1ccc(OCC(O)CNC(C)C)cc1 (stereo not given) [PRACTOLOL]
[5]
  Kb: 186 nM

## CC(CC#N)NCC(O)COc1ccc(CCOCC2CCC2)cc1.Cl (stereo not given)
[1]
  Baseline systolic BP: -2%
[2]
  Baseline systolic BP: -4%
[3]
  Baseline systolic BP: -2%
